How the values were obtained:
Assay in all cases: relative viability (nuclei count vs DMSO), 5 days (fraction); higher = more cells survive
GSK126 + Pictilisib = compound: CC[C@H](C)N1C=C(C2=C(C=C(C=C21)C3=CN=C(C=C3)N4CCNCC4)C(=O)NCC5=C(C=C(NC5=O)C)C)C [GSK126] + CS(=O)(=O)N1CCN(Cc2cc3nc(-c4cccc5[nH]ncc45)nc(N4CCOCC4)c3s2)CC1 [Pictilisib] (partner 1 µM)
Procedure, shortened: (§1)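 Lung cancer cell lines were pin-tool dosed in 1536-well plates on the day after seeding, with either a lone drug or a fixed anchor-drug dose plus five library-drug doses (not always all listed) in √10 steps. Nuclei were counted on 4× images after 5 days. Relative viability is the ratio of treated-well to vehicle-well nuclei counts, with each value a median of duplicate plates.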

GSK126 + Linsitinib = compound: CC[C@H](C)N1C=C(C2=C(C=C(C=C21)C3=CN=C(C=C3)N4CCNCC4)C(=O)NCC5=C(C=C(NC5=O)C)C)C [GSK126] + C[C@]1(O)C[C@@H](c2nc(-c3ccc4ccc(-c5ccccc5)nc4c3)c3c(N)nccn32)C1 [Linsitinib] (partner 1 µM)
Procedure, shortened: as §1

MLN4924 + Palbociclib = compound: NS(=O)(=O)OC[C@@H]1C[C@@H](n2ccc3c(N[C@H]4CCc5ccccc54)ncnc32)C[C@@H]1O [MLN4924] + CC(=O)c1c(C)c2cnc(Nc3ccc(N4CCNCC4)cn3)nc2n(C2CCCC2)c1=O [Palbociclib] (partner 0.5 µM)
Procedure, shortened: as §1

MLN4924 + Pemetrexed = compound: NS(=O)(=O)OC[C@@H]1C[C@@H](n2ccc3c(N[C@H]4CCc5ccccc54)ncnc32)C[C@@H]1O [MLN4924] + Nc1nc2[nH]cc(CCc3ccc(C(=O)N[C@@H](CCC(=O)O)C(=O)O)cc3)c2c(=O)[nH]1 [Pemetrexed] (partner 0.2 µM)
Procedure, shortened: as §1

Cell Line	relative viability (GSK126 + Pictilisib; first compound 0.08 µM)	relative viability (GSK126 + Pictilisib; first compound 0.253 µM)	relative viability (GSK126 + Pictilisib; first compound 0.8 µM)	relative viability (GSK126 + Pictilisib; first compound 2.53 µM)	relative viability (GSK126 + Pictilisib; first compound 8 µM)	relative viability (GSK126 + Linsitinib; first compound 0.08 µM)	relative viability (GSK126 + Linsitinib; first compound 0.253 µM)	relative viability (GSK126 + Linsitinib; first compound 0.8 µM)	relative viability (GSK126 + Linsitinib; first compound 2.53 µM)	relative viability (GSK126 + Linsitinib; first compound 8 µM)	relative viability (MLN4924 + Palbociclib; first compound 0.04 µM)	relative viability (MLN4924 + Palbociclib; first compound 0.1265 µM)	relative viability (MLN4924 + Palbociclib; first compound 0.4 µM)	relative viability (MLN4924 + Palbociclib; first compound 1.265 µM)	relative viability (MLN4924 + Palbociclib; first compound 4 µM)	relative viability (MLN4924 + Pemetrexed; first compound 0.04 µM)	relative viability (MLN4924 + Pemetrexed; first compound 0.1265 µM)	relative viability (MLN4924 + Pemetrexed; first compound 0.4 µM)	relative viability (MLN4924 + Pemetrexed; first compound 1.265 µM)	relative viability (MLN4924 + Pemetrexed; first compound 4 µM)
ABC-1	0.972	1.03	0.732	0.858	0.687	0.83	1.03	0.67	0.703	0.755	1	1.02	0.695	0.316	0.498					
NCI-H2170	0.333	0.281	0.35	0.322	0.346						0.392	0.242	0.253	0.109	0.124	0.275	0.311	0.271	0.129	0.135
IA-LM	0.359	0.286	0.301	0.443	0.36	0.685	0.729	0.737	0.365	0.614										
NCI-H1650	0.568	0.596	0.566	0.794	0.556						0.286	0.221	0.19	0.131	0.136	0.377	0.471	0.248	0.168	0.185
SW 900												0.439	0.388	0.231	0.231		0.397	0.261	0.194	0.168
A549	0.506	0.479	0.485	0.46	0.53	0.687	0.524	0.541	0.594	0.58										
NCI-H1299	0.877	0.693	0.74	1.02	0.576	0.986	0.998	1	0.93	0.964										
NCI-H2342											0.53	0.575	0.591	0.635	0.449	0.796	0.787	0.815	0.714	0.559
NCI-H522											0.835	0.693	0.741	0.348	0.37	0.876	0.859	0.612	0.323	0.383
ChaGo-K-1	0.831	0.656	0.746	0.722	0.649						0.75	0.419	0.365	0.184	0.159	0.272	0.258	0.251	0.179	0.181
EBC-1	0.42	0.321	0.41	0.321	0.25	1.07	1.02	1	0.74	0.909										
Calu-6	1.03	0.987	0.913	1.07	0.967	1.14	0.97		0.989	1.07										
NCI-H596	0.386	0.404	0.378	0.382	0.37	1.02	0.99	1.03	1.16	1.15						0.49	0.511	0.405	0.496	0.437

From the supplement of paper PMC10307832
